Assay results: patent publication US20100248226A1, “METHODS FOR MEASURING CELL RESPONSE TO DNA DAMAGING AGENTS USING PROMYELOCYTIC LEUKEMIA PROTEIN NUCLEAR BODIES” (priority 2006, published 2010)
Like-named read-outs stand apart in the source and are kept apart here.

Columns and labels:
PML protein in NHDFs = assay type: cell-based, human; conditions: CHX 30 min prior and maintained
From the text: Cell Culture and drug treatments. Cell lines used in this study: NDHFs (GM05757, Coriell Cell Repository); human AT fibroblasts (a.k.a. AT5B1, GM05823; Coriell); human NBS-T fibroblasts (gift of J. Lukas, Danish Cancer Society, Copenhagen, Denmark); human ATLD fibroblasts (gift of Y. Shiloh, Tel Aviv University, Tel Aviv, Israel) Saos-2 (American Tissue Culture Type Collection (ATCC), HCT116 and p53 null HCT116 isogenic cells (gift of Dr. B. Vogelstein, Department of Oncology, John Hopkins University, Baltimore, Md.); ATR-DN and ATR-WT cells (gift of Dr. Paul Nghiem, University of Washington Medical School, Seattle, Wash.); Seckel syndrome cells (GM18366, Coriell); Chk2−/−MEFs and isogenic WT MEFs (gift of Dr. T. Mak, University of Toronto, Toronto); and isogenic and U2OS cells stably expressing GFP-PML IV (gift of J. Taylor, U. Wisconsin, Milwaukee, Wis.). NBST-pBabe and NBST-pBabe-NBS1 cells lines were generated by retroviral transduction of NBS-T fibroblasts using either pBabe-Puro alone or encoding full length human NBS1 (gift of J. Lukas), respectively. […] Alternately, asynchronous cell cultures were exposed to whole-cell ionizing radiation (IR)(dose range, 0-20 Gy) using a ^137Cs irradiator (MDS Nordion, Ottawa, Canada) at 1 Gy/min (on ice, aerobic conditions). […] Cells were then maintained in growth medium containing kinase inhibitors for the indicated time.

NHDFs = test: BrdU incorporation (DNA synthesis) after VP16, NHDF; assay type: cell-based, human; conditions: NHDFs treated with CHX, 18 h post-VP16 treatment
Method: Cells were prepared for immunolabelling as described (Eskiw et al., 2003). To label with BrdU, cells were pulsed with 20 μM BrdU for 30 minutes, fixed in methanol for 30 minutes at −20° C. The methanol was removed and 4N HCl was added to the cells for 2 minutes at room temperature (RT). Cells were washed 3× with PBS at RT. Primary antibodies used were: mouse anti-PML, clone 5E10 (1:10)(a gift from R. van Driel, University of Amsterdam, The Netherlands), rabbit anti-PML (1:1000)(Chemicon, AB1370); rabbit anti-Sp100 (1:500)(Chemicon, Ab1380); mouse anti-RPA (1:200)(Calbiochem, RPA34-20); mouse anti-phospho-Histone H3 (ser10) (1:500)(Upstate, MC463); rabbit anti-Cyclin A (1:200)(Santa Cruz, sc-751); mouse anti-SUMO1 (1:20)(Zymed, GMP-1); mouse anti-y-H2AX (1:500)(Upstate, JBW301); mouse anti-BrdU (1:10)(BD Biosciences, clone B44). Secondary antibodies used were donkey anti-mouse or rabbit Cy3 and Cy5 (Jackson Laboratories). […] For fluorescence microscopy, coverslips were mounted on glass slides using 90% glycerol/PBS containing 1 mg/ml paraphenlenediamine and 1 μg/ml 4′,6-Diamidino-2-phenylindole (DAPI). Images were collected on a Leica Microsystems DMRA2 upright microscope equipped with a Hamamatsu ORCA-ER camera using the 63×1.32 NA oil-immersion objective. […] OpenLab 3.5.1 (Improvision) software was used to collect images, and the images were processed with Photoshop 7.0 (Adobe). […]

[1] = test system: PML NBs in normal human diploid fibroblast (NHDF) cell line GM05757; assay type: cell-based
From the text: (§1) Cell Culture and drug treatments. Cell lines used in this study: NDHFs (GM05757, Coriell Cell Repository); human AT fibroblasts (a.k.a. AT5B1, GM05823; Coriell); human NBS-T fibroblasts (gift of J. Lukas, Danish Cancer Society, Copenhagen, Denmark); human ATLD fibroblasts (gift of Y. Shiloh, Tel Aviv University, Tel Aviv, Israel) Saos-2 (American Tissue Culture Type Collection (ATCC), HCT116 and p53 null HCT116 isogenic cells (gift of Dr. B. Vogelstein, Department of Oncology, John Hopkins University, Baltimore, Md.); ATR-DN and ATR-WT cells (gift of Dr. Paul Nghiem, University of Washington Medical School, Seattle, Wash.); Seckel syndrome cells (GM18366, Coriell); Chk2−/−MEFs and isogenic WT MEFs (gift of Dr. T. Mak, University of Toronto, Toronto); and isogenic and U2OS cells stably expressing GFP-PML IV (gift of J. Taylor, U. Wisconsin, Milwaukee, Wis.). NBST-pBabe and NBST-pBabe-NBS1 cells lines were generated by retroviral transduction of NBS-T fibroblasts using either pBabe-Puro alone or encoding full length human NBS1 (gift of J. Lukas), respectively. […] Alternately, asynchronous cell cultures were exposed to whole-cell ionizing radiation (IR)(dose range, 0-20 Gy) using a ^137Cs irradiator (MDS Nordion, Ottawa, Canada) at 1 Gy/min (on ice, aerobic conditions). […]
(§2) IF detection of proteins, live-cell imaging and fluorescence recovery after photobleaching (FRAP). […]

[2] = test system: PML NBs in NHDF cell line GM05757; test: Kinase inhibitor effect on the PML NB number increase in response to DSBs; assay type: cell-based, human
From the text: as §1, §2

[3] = test system: PML NBs in NHDFs (GM05757); test: Correlative LM/ESI ultrastructure of PML NBs; assay type: cell-based, human; conditions: 20 μM VP16 for 30 min, NHDF
Method: Correlative Microscopy and Electron Spectroscopic Imaging—Samples were prepared and sectioned for correlative microscopy and electron spectroscopic imaging (ESI) as previously described (Eskiw et al., 2003; Dellaire et al., 2004). Nitrogen and phosphorus maps were collected using an FEI Technai 20 transmission electron microscope fitted with an electron imaging spectrometer (Gatan). Immuno-gold labeling was accomplished using a secondary antibody conjugated to Ultra-small nanogold (donkey anti-rabbit, EMS, Cat. 25100).

NHDFs (GM05757) = test: FACS cell cycle analysis; assay type: cell-based, human; conditions: NHDFs by 18 h after VP16 treatment
Method: Cells were harvested and pelleted. The pellet was resuspended in 50 μl HBSS with 2% FBS. Cells were fixed with 1 ml ice-cold 80% ethanol for 30 minutes on ice. Cells were pelleted and resuspended in HBSS containing 0.1 mg/ml propidium iodide (Sigma) and 0.6% NP-40 to final concentration of 2×10^6 cells/ml. An equal volume of 2 mg/ml RNase in HBSS was added and incubated at room temperature in the dark for 30 minutes. This solution was then filtered through a 40 μm nylon mesh (BD Biosciences) and keep on ice until analysis. Cells were analyzed on a FACscan flowcytometer (BD Biosciences). Data analysis was performed using FlowJo 6.0 (Tree Star).

Q: With `C[C@@H]1C[C@@H]([C@H](O)CC2CC(=O)NC(=O)C2)C(=O)[C@@H](C)C1` [CHX, cycloheximide] as the molecule, how does the “effect on DNA damage-dependent increase in PML protein levels” value (PML protein in NHDFs; 4 h after VP16) read?
A: little effect

Q: What about the “effect on DNA damage-dependent increase in PML protein levels” value (PML protein in NHDFs; 12 h after VP16) of the same molecule?
A: inhibited

Q: And the BrdU incorporation (NHDFs)?
A: no BrdU incorporation

Q: What about the “PML NB number initially, compared to untreated cells” value ([1]; CHX-treated NHDFs, VP16 treatment) of the same molecule?
A: higher number of PML NBs initially

Q: How did the “effect on PML NB number at 3 h following VP16 treatment” value ([2]; 10 μM Chk2 inhibitor II or 20 μM wortmannin pre-treatment, versus VP16 without inhibitor) turn out when `NC(=O)c1ccc2nc(-c3ccc(Oc4ccc(Cl)cc4)cc3)[nH]c2c1` [Chk2 kinase inhibitor II] was run?
A: significantly reduce

Q: And the “effect on the initial increase in PML NBs in response to VP16” value ([2]; 10 μM inhibitor pre-treatment, 30 min time point)?
A: did not affect

Q: Which “PML NB ultrastructure (symmetry, chromatin contacts)” value [3] does the source give for `COc1cc([C@@H]2c3cc4c(cc3[C@@H](O[C@@H]3O[C@@H]5CO[C@@H](C)O[C@H]5[C@H](O)[C@H]3O)[C@H]3COC(=O)[C@H]23)OCO4)cc(OC)c1O` [VP16, etoposide] here?
A: lose their radial symmetry and make fewer contacts with the surrounding chromatin fibres

Q: What about the cell cycle distribution (NHDFs (GM05757)) of the same molecule?
A: marked accumulation in G1 and G2 phase

Q: Which “time after treatment at which γ-H2AX signal and PML NB number peaked” value ([1]; 20 μM VP16 or 1.5 μM doxorubicin for 30 min, NHDF GM05757) does the source give for `COc1cccc2c1C(=O)c1c(O)c3c(c(O)c1C2=O)C[C@@](O)(C(=O)CO)C[C@@H]3O[C@H]1C[C@H](N)[C@H](O)[C@H](C)O1` [doxorubicin] here?
A: 3 h
